Common to all, as to assay: NCI anticancer screen, dose series, 48 h
Experiment [1] relates to A549 NSCLC.
The test system of experiment [2] is ACHN renal.
The subject of experiment [3] is CCRF-CEM leukemia.
For experiment [4], the system named is HCT-116 colon.
The test system of experiment [5] is HOP-92 NSCLC.
The test system of experiment [6] is IGROV1 ovarian.
Experiment [7] has as its system KM12 colon.
Experiment [8] deals with LOX IMVI melanoma.
For experiment [9], the system named is OVCAR-5 ovarian.
For experiment [10], the system named is SK-MEL-5 melanoma.

Each structure is given as a SMILES string.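 Following 48 hours of exposure in 96-well plates, responses at five concentrations were used to interpolate endpoints linearly. GI50 is the concentration that inhibits growth by half. TGI denotes the concentration required for complete inhibition of growth.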 A value given as a limit tells only on which side of the number the result lay.

For `O=C(NCC(=O)N1CC[C@H](NC2CCC(O)(c3ccc(-c4ncccn4)cn3)CC2)C1)c1cccc(C(F)(F)F)c1` (stereo partly drawn), the GI50 in [1] was over 100 µM; in [2], over 100 µM; in [3], 88.6 µM; in [4] it was 36.4 µM; in [5] it was 30.4 µM; in [6], over 100 µM. Moreover, the GI50 in experiment [7] was over 100 µM; in experiment [8], 32.3 µM; in [9], over 100 µM; in experiment [10], 18.2 µM. In addition, the TGI in [1], in [2], in [3], in [4], in [5] and in experiment [6] was over 100 µM each time. For the same molecule, the TGI in [7] is over 100 µM; in experiment [8], over 100 µM; in experiment [9], over 100 µM; in experiment [10] it was 46.6 µM.

With `O=C1/C(=C/c2ccc(Cl)cc2)CN(Cc2cn(CCNc3ccnc4cc(Cl)ccc34)nn2)C/C1=C\c1ccc(Cl)cc1`, the GI50 is 0.284 µM in experiment [1]; 0.391 µM in experiment [2]; 0.309 µM in experiment [3]; 0.203 µM in [4]; 0.496 µM in experiment [5]; 0.276 µM in experiment [6]. Also, the GI50 was 0.22 µM in experiment [7], 0.189 µM in experiment [8], 0.612 µM in experiment [9] and 0.807 µM in [10]. Besides, the TGI was 0.834 µM in experiment [1]; 1.21 µM in experiment [2]; over 100 µM in experiment [3]; 0.436 µM in experiment [4]; 1.83 µM in [5]; 0.732 µM in [6]. In addition, the TGI came to 0.496 µM in experiment [7], 0.35 µM in [8], 1.62 µM in experiment [9] and 2.08 µM in [10].

Consider `O=C(Nc1cccc([N+](=O)[O-])c1)c1ccc2ccccc2c1O`, for which the GI50 in [1] is 6.87 µM; in experiment [2], 12.2 µM; in experiment [3] it was 2.35 µM; in experiment [4], 5.27 µM; in experiment [5] it was 1.77 µM; in [6], 13.8 µM. Also, the GI50 in [7] is 4.41 µM; in experiment [8] it was 9.94 µM; in [9], 20.6 µM; in experiment [10], 1.75 µM. Also, the TGI in experiment [1] was over 100 µM; in experiment [2], over 95.4 µM; in experiment [3], over 35.1 µM; in experiment [4], over 100 µM; in experiment [5], 6.71 µM; in [6], 46 µM. The TGI is over 81.2 µM in experiment [7], over 100 µM in experiment [8], over 100 µM in experiment [9] and 6.41 µM in experiment [10].

With `CCCCCCCCCCCCCCCCOC(=O)c1c(C)[nH]c(/C=C2\N=C(c3ccc[nH]3)C=C2OC)c1C`, the GI50 was 0.239 µM in experiment [1]; 1.65 µM in experiment [2]; 32.9 µM in experiment [3]; 0.043 µM in experiment [4]; 0.2 µM in experiment [5]; 1.06 µM in [6]. The GI50 in experiment [7] was 0.102 µM; in experiment [8], 0.0346 µM; in experiment [9] it was 0.718 µM; in [10], 0.119 µM. For the same molecule, the TGI in [1] was 12.8 µM; in [2], 14.9 µM; in [3] it was over 100 µM; in experiment [4], 7.33 µM; in [5], 0.83 µM; in experiment [6] it was 9.4 µM. In addition, the TGI in [7] was over 100 µM; in experiment [8], 0.144 µM; in experiment [10], 0.703 µM.

For `COCOCc1cc(OCc2ccccc2)c(OC)cc1Br`, the TGI in experiment [1], in experiment [2], in [3], in experiment [4], in [5] and in [6] was over 100 µM throughout. Besides, the TGI in [7], in [8], in experiment [9] and in experiment [10] was over 100 µM in each case.

Consider `CC(=O)Nc1ccc2c(c1)C(=O)c1cccc(F)c1-2`, for which the TGI was over 100 µM in experiment [1]; over 100 µM in experiment [2]; over 100 µM in experiment [3]; over 81.7 µM in [4]; 97.7 µM in [5]; over 100 µM in experiment [6]. For the same molecule, the TGI in [7] is over 35 µM; in experiment [8] it was over 100 µM; in [9], over 100 µM; in experiment [10], over 100 µM.

Turning to `COc1ccc2c(c1)C(=O)/C(=C/c1ccc([N+](=O)[O-])s1)O2`, the GI50 in experiment [1] was 1.06 µM; in experiment [2] it was 0.263 µM; in experiment [3] it was 0.308 µM; in experiment [4] it was 0.204 µM; in [5], 0.23 µM; in [6], 0.349 µM. The GI50 in experiment [7] is 0.235 µM; in [8] it was 0.256 µM; in experiment [9], 1.6 µM; in [10], 0.326 µM. In addition, the TGI in [1] turned out to be 4.07 µM; in experiment [2], 0.722 µM; in experiment [4] it was 0.401 µM; in [5] it was 1.23 µM; in experiment [6] it was 1.2 µM; in experiment [7], 0.51 µM. Besides, the TGI in [8] amounted to 0.637 µM; in experiment [9], 3.34 µM; in experiment [10], 1.04 µM.

For the molecule `O=C(Nc1ccc([N+](=O)[O-])cc1C(=O)O)c1ccc([N+](=O)[O-])cc1`, the TGI in experiment [1] is over 100 µM; in [2], over 100 µM; in experiment [3], 26.9 µM; in experiment [4], 53.9 µM; in experiment [5], 36.6 µM; in [6], over 100 µM. The TGI is 99.5 µM in experiment [7], over 100 µM in [8], over 100 µM in [9] and over 100 µM in experiment [10].

For `Cc1ccc([N+](=O)[O-])cc1NC(=O)C(=O)Cc1cc(=O)oc2cc(O)ccc12`, the TGI in [1] was over 100 µM; in experiment [2] it was over 100 µM; in experiment [3], over 100 µM; in experiment [4] it was 47.5 µM; in experiment [5], over 100 µM; in experiment [6] it was over 100 µM. Further, the TGI in experiment [7] is over 100 µM; in experiment [8] it was 97 µM; in experiment [9] it was over 100 µM; in experiment [10], over 100 µM.

The values are drawn from PubChem BioAssay (NCI).
